Assay results: article PMC3742231 (International Journal of Molecular Sciences, 2013)
Read-outs that look alike come from different tables or passages of the source.

How the values were obtained:
CYP2B6 = target: T1, CYP2B6 (Homo sapiens, UniProt P20813); assay: biochemical; details: read-out: IC50, Bupropion hydroxylation; human liver microsomes, probe 1 μM
T1 sequence (P20813 1-491): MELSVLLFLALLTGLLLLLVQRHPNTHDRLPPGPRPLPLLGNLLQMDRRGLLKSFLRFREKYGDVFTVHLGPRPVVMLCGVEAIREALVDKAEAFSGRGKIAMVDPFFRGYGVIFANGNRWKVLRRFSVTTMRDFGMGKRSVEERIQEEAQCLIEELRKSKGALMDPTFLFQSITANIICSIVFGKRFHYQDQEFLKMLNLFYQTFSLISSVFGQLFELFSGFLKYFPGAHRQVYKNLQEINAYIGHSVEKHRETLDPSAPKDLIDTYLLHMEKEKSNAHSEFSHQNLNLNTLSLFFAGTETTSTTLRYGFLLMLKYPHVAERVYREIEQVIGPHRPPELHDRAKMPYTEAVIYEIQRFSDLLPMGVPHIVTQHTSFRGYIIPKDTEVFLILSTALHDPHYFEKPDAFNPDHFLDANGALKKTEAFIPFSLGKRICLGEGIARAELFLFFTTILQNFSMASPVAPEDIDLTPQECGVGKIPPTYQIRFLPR
Experimental: (§1) Human liver microsomes were prepared and pooled from ten human livers (HL20–24,28–32) as previously described. Human liver samples were obtained from the University Hospital of Oulu as surplus tissue from cadaver kidney transplant donors. The collection of surplus tissue was approved by the Ethics Committee of the Medical Faculty of the University of Oulu, Finland. All donors were Caucasians ranging in age from 21 to 62 years; four were female and six were male. Detailed information on each donor has been published previously. Protein concentrations were measured using the Bradford method.
(§2) In vitro inhibition of CYP isoforms was first assessed using the N-in-one approach (also called the cocktail approach). CYP-selective substrates and reactions are listed in Table 1; concentrations were roughly at or below the respective Michaelis-Menten coefficients. […] A Micromass LCT time-of-flight high-resolution mass spectrometer (Micromass Ltd., Manchester, UK) equipped with a Z-spray electrospray ionization source was used for the monitoring of CYP-selective reactions. Integrated mass chromatogram peak areas were normalized versus internal standards before comparing metabolites in different preparations. More details of the assay are available in previous publications.
(§3) Dixon, Lineweaver-Burk, Hanes, and Hofstee plots were used for the analysis of the type of inhibition.

CYP2C19 = CYP2C19 (Homo sapiens, UniProt P33261); assay: biochemical; details: human liver microsomes, probe 2 μM
Sequence of CYP2C19 (P33261 whole entry): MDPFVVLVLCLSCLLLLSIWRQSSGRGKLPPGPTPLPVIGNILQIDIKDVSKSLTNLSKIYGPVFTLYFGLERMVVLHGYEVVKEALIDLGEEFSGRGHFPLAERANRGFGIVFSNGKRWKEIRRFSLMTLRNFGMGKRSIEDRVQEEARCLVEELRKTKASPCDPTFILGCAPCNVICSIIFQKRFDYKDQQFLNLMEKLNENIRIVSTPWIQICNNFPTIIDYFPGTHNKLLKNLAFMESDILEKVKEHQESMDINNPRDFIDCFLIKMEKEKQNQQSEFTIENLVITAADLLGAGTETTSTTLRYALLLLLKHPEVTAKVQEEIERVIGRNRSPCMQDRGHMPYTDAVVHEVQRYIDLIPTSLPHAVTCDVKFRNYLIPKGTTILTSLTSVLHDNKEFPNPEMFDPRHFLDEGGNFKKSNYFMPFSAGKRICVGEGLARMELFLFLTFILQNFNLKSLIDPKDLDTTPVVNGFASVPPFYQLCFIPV
Experimental: as §1, §2, §3

CYP2C9 = CYP2C9 (Homo sapiens, UniProt P11712); details: read-out: IC50, Tolbutamide methylhydroxylation; human liver microsomes, probe 4 μM
Sequence of CYP2C9 (P11712 whole entry): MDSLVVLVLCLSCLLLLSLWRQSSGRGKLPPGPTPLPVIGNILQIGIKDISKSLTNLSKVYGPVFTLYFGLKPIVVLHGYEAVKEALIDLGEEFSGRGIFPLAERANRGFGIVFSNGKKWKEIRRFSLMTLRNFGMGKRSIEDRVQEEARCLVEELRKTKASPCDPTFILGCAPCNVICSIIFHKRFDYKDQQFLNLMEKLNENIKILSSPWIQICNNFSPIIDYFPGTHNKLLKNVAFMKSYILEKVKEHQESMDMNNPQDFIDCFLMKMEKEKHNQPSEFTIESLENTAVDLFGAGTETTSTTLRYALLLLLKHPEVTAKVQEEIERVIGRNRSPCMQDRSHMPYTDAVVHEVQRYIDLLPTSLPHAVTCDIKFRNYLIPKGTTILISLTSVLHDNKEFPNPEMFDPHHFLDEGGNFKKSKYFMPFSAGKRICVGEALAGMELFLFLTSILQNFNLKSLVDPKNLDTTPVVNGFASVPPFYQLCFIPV
Experimental: as §1, §2, §3

CYP2C8 = target: T2, CYP2C8 (Homo sapiens, UniProt P10632); assay: N-in-one CYP inhibition assay in human liver microsomes; type of inhibition; details: read-out: IC50, Amodiaquine desethylation; human liver microsomes, probe 2 μM
T2 sequence (P10632 1-490): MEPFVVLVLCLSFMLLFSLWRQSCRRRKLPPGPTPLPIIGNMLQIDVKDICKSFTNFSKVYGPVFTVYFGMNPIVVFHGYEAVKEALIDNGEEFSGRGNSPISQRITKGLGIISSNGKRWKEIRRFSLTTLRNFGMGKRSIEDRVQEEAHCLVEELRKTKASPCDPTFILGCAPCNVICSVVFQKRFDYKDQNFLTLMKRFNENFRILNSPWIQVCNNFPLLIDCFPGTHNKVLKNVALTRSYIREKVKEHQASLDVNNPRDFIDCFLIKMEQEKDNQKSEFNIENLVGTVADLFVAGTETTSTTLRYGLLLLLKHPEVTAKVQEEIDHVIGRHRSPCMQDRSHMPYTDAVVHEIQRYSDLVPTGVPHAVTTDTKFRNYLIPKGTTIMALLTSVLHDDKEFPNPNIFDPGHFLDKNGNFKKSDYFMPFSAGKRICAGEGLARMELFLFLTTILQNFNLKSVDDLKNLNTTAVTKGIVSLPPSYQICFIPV
Experimental: as §1, §2, §3

CYP2D6 = CYP2D6 (Homo sapiens, UniProt P10635); assay: as above; details: read-out: IC50, Dextromethorphan O-demethylation; human liver microsomes, probe 0.2 μM
Sequence of CYP2D6 (P10635 whole entry): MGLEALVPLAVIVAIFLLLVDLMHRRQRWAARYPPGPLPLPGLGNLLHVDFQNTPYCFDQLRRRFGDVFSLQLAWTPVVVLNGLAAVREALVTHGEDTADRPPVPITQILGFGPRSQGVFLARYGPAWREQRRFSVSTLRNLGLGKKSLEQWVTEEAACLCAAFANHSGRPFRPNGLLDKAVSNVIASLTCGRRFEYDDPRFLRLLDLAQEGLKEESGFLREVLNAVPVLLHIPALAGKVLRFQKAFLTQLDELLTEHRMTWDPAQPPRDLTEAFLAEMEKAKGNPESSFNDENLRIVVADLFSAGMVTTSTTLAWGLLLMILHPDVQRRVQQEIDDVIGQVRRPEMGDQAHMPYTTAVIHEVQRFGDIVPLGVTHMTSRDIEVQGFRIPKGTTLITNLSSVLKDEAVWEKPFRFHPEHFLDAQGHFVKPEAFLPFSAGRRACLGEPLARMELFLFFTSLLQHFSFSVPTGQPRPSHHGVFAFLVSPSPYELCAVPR
Experimental: as §1, §2, §3

CYP2A6 = target: T3, CYP2A6 (Homo sapiens, UniProt P11509); assay: N-in-one CYP inhibition assay in human liver microsomes; details: read-out: IC50, Coumarin 7-hydroxylation; human liver microsomes, probe 2 μM
T3 sequence (P11509 1-494): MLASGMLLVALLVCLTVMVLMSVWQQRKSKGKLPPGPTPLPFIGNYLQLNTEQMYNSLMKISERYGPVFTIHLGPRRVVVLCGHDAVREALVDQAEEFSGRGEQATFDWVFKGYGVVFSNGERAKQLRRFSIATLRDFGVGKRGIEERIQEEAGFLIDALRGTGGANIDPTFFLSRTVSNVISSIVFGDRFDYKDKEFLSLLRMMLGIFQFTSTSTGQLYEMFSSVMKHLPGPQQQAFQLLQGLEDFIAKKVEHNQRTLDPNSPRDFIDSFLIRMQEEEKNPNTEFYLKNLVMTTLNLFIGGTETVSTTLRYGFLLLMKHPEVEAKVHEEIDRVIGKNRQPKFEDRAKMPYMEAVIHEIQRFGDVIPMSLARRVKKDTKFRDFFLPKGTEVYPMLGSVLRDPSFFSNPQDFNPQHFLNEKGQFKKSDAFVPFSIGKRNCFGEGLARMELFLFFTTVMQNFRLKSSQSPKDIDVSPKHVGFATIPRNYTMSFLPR
Experimental: as §1, §2

CYP2E1 = CYP2E1 (Homo sapiens, UniProt P05181); assay: as above; details: read-out: IC50, Chlorzoxazone 6-hydroxylation; human liver microsomes, probe 6 μM
Sequence of CYP2E1 (P05181 whole entry): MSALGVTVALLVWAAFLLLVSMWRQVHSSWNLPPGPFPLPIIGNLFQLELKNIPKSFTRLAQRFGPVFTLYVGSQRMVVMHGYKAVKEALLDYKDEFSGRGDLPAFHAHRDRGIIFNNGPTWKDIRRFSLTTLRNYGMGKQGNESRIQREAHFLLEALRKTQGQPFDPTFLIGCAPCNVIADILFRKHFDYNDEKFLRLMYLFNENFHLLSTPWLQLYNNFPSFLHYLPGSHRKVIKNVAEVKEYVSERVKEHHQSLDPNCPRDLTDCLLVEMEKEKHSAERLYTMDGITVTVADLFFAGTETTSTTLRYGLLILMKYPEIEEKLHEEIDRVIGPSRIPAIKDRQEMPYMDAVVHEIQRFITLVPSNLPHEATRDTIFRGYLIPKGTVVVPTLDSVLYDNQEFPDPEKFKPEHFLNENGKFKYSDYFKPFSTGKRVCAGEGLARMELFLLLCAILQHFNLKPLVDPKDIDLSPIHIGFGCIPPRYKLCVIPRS
Experimental: as §1, §2

CYP1A2 = target: T4, CYP1A2 (Homo sapiens, UniProt P05177); assay: biochemical; details: read-out: IC50, Melatonin 6-hydroxylation; human liver microsomes, probe 4 μM
T4 sequence (P05177 1-516): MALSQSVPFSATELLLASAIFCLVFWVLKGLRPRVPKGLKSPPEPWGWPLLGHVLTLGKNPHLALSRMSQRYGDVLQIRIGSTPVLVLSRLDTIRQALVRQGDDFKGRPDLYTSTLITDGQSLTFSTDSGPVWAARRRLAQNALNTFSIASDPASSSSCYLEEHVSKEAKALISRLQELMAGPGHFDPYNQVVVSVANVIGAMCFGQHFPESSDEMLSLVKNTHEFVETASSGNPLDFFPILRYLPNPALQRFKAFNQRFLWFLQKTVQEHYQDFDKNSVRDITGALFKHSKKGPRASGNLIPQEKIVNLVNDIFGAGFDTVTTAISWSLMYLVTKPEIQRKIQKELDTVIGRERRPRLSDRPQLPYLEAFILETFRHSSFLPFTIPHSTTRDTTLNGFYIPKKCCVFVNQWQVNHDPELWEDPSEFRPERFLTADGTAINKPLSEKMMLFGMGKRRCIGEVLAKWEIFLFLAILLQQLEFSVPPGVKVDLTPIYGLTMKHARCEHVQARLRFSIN
Experimental: as §1, §2

CYP3A4 = CYP3A4 (Homo sapiens, UniProt P08684); assay: biochemical; details: human liver microsomes
Sequence of CYP3A4 (P08684 whole entry): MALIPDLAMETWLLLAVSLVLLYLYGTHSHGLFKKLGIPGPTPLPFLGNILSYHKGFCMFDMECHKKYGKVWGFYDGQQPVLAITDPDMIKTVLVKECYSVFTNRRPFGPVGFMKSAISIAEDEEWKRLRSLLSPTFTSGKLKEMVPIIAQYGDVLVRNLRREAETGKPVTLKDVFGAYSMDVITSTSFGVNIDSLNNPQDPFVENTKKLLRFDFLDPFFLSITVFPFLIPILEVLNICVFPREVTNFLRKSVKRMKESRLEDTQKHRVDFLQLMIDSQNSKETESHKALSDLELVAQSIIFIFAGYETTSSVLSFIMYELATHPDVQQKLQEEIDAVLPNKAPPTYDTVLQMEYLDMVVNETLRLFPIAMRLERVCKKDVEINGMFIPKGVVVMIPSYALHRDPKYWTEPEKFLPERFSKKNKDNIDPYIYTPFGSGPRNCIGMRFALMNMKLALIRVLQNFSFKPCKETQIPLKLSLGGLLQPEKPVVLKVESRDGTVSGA
Experimental: as §1, §2

[1] = tested on: CYP-mediated enzyme activities; assay: N-in-one CYP inhibition assay, summary for all other CYP-mediated activities; assay type: in vitro ADME; details: human liver microsomes; CYPs other than those named in the paragraph
[2] = repeated oral 60-mg dosing of ospemifene, no reference given; read-out: clinical Cmax; cited from earlier work
[3] = metabolites of ospemifene; cited from earlier work
[4] = Overall safety in the three clinical studies; assay type: in vivo, human; details: healthy postmenopausal women, with and without ospemifene
Text: All experiments with human subjects were based on voluntary informed consent and the clinical study protocols had appropriate ethical and regulatory approval. Subjects were asked to immediately report any significant adverse events (AEs) that occurred during the study; minor AEs were reported at clinic visits. AEs were coded and classified according to the Medical Dictionary for Regulatory Activities.

[5] = female, human, in vivo, 150 mg
Text: (§4) Studies 1 and 2 were open-label, two-period, single-center, Phase 1, balanced, crossover studies in healthy postmenopausal women. […] Study 3 was a Phase 1, open-label, single-center, balanced, two-period, crossover study in healthy postmenopausal women who were not homozygous for the CYP2C19*2 genotype (CYP2C19*2 indicates the CYP2C19 variant that is associated with reduced activity). In each study, equal numbers of subjects were assigned to the two different treatment sequences.
(§5) The study periods were separated by ≥14 days.
(§6) With the exception of tmax, which was analyzed using the nonparametric Wilcoxon’s test, pharmacokinetic parameters were analyzed after log-transformation using analysis of variance (ANOVA), with sequence, period, and treatment as fixed effects.

clinical = details: female, human, in vivo
Text: as §4, §5, §6

[6] = Study 2: effect of ospemifene on bupropion pharmacokinetics; details: for CL/F, mean (CV%) / t1/2, mean (CV%) / AUCt, mean (CV%) / Cmax, mean (CV%) / tmax, median (range) / AUC∞, mean (CV%): 150 mg bupropion; for AUCt, mean (CV%): 0-96 h; for AUC∞, mean (CV%): N = 16
Text: as §4, §5, §6

[7] = Study 3: effect of ospemifene on omeprazole pharmacokinetics (metabolic ratios)
Text: as §4
The study periods were separated by ≥14 days. In both study periods, blood samples for determination of plasma omeprazole, 5-hydroxyomeprazole, and omeprazole sulfone concentrations were collected before and at 1, 2, 3, 4, 6, and 8 h after omeprazole administration.
In Study 3, concentrations of omeprazole, 5-hydroxyomeprazole, and omeprazole sulfone were determined using a validated LC-MS/MS method. Pharmacokinetic parameters were analyzed after log-transformation using ANOVA, with sequence, period, and treatment as fixed effects. Primary pharmacokinetic parameters included the metabolic ratios of omeprazole/5-hydroxyomeprazole and omeprazole/omeprazole sulfone, based on plasma concentrations at 3 h, which reflected CYP2C19 and CYP3A4 activities, respectively.

[8] = 10 mg racemic warfarin; for AUC∞, mean (CV%): N = 16
Text: as §4
The study periods were separated by ≥3 weeks.
as §6

[9] = cited from earlier work

With OCCOc1ccc(/C(=C(/CCCl)c2ccccc2)c2ccc(O)cc2)cc1 [4-Hydroxy-ospemifene, 4-hydroxyospemifene] the IC50 (CYP2B6) was 26.5 µM, the IC50 (CYP2C19; read-out: IC50, Omeprazole 5-hydroxylation) was 15.3 µM and the IC50 (CYP2C19; read-out: IC50, Omeprazole demethylation) was 19.7 µM. The IC50 (CYP2C9) was 1.1 µM, the IC50 (CYP2C8) was 27.7 µM and the IC50 (CYP2D6) was 25.5 µM. The IC50 (CYP2A6) was over 100 µM, the IC50 (CYP2E1) was over 100 µM and the IC50 (CYP1A2) was over 100 µM. The IC50 (CYP3A4; read-out: IC50, Midazolam 1′-hydroxylation, probe 0.4 μM) was over 100 µM, the IC50 (CYP3A4; read-out: IC50, Omeprazole 3-hydroxylation, probe 2 μM) was 50 µM and the IC50 (CYP3A4; read-out: IC50, Omeprazole sulfoxidation, probe 2 μM) was 35.9 µM. The IC50 (CYP3A4; read-out: IC50, Testosterone 6β-hydroxylation, probe 1 μM) was over 100 µM, the IC50 [1] was over 25 µM and the Cmax [2] was about 300 nM. The “share of the total metabolites” value [3] was “roughly 70%”.

In the case of CC(NC(C)(C)C)C(=O)c1cccc(Cl)c1 (centres unmarked) [Bupropion, bupropion], the Tolerability [4] is reported as “well tolerated”, the “AUCt, mean (CV%)” value [5] is reported as 0.85 (33.7) μg h/mL and the “AUC∞, mean (CV%)” value [5] is reported as 0.90 (32.3) μg h/mL. For the same compound, the Tmax (clinical) was 3 h, the Cmax (clinical; 150 mg) was 74.9 ng/mL and the Tmax (clinical; 150 mg) was 3.5 h. The half-life (clinical; 150 mg) was 30.8 h, the “CL/F, mean (CV%)” value ([6]; OSP (+)) was 230 (38.1) mL/h and the “t1/2, mean (CV%)” value ([6]; OSP (+)) was 29.5 (26.7) h. For the same compound, the “CL/F, mean (CV%)” value ([6]; OSP (−)) was 185 (38.1) mL/h.

In the case of C[C@H]1NC(C)(C)CO[C@]1(O)c1cccc(Cl)c1 [Hydroxybupropion, hydroxybupropion], the “AUCt, mean (CV%)” value ([6]; OSP (+)) is reported as 14.5 (31.7) μg h/mL, the “AUCt, mean (CV%)” value ([6]; OSP (−)) is reported as 14.3 (28.1) μg h/mL and the “Cmax, mean (CV%)” value ([6]; OSP (+)) is reported as 462 (29.0) ng/mL. For the same compound, the “t1/2, mean (CV%)” value ([6]; OSP (+)) was 21.2 (18.0) h, the “tmax, median (range)” value ([6]; OSP (+)) was 6.1 (5–8) h and the “AUC∞, mean (CV%)” value ([6]; OSP (+) 60 mg once daily) was 15.2 (32.4) μg h/mL. The “Cmax, mean (CV%)” value ([6]; OSP (−)) was 398 (30.6) ng/mL, the “t1/2, mean (CV%)” value ([6]; OSP (−)) was 26.7 (18.8) h and the “tmax, median (range)” value ([6]; OSP (−)) was 6.0 (5–24) h. The “AUC∞, mean (CV%)” value ([6]; OSP (−)) was 15.5 (29.4) μg h/mL and the “Ratio of geometric least square means of AUC∞ (90% CI)” value ([6]; with and without ospemifene pretreatment) was 0.977 (0.921–1.036).

For COc1ccc2[nH]c([S+]([O-])Cc3ncc(C)c(OC)c3C)nc2c1 (centres unmarked) [Omeprazole, omeprazole], the Tolerability [4] was “well tolerated”, the “Ratio ospemifene (+)/ospemifene (−) of metabolic ratio Omeprazole/5-hydroxyomeprazole (90% CI)” value ([7]; 3 h conc.) was 0.97 (0.77–1.22) and the “Ratio ospemifene (+)/ospemifene (−) of metabolic ratio Omeprazole/Omeprazole sulfone (90% CI)” value ([7]; 3 h conc.) was 0.97 (0.67–1.41). For the same compound, the “Ratio ospemifene (+)/ospemifene (−) of metabolic ratio Omeprazole/5-hydroxyomeprazole (90% CI)” value ([7]; AUCt 0 to 8 h) was 0.97 (0.88–1.08) and the “Ratio ospemifene (+)/ospemifene (−) of metabolic ratio Omeprazole/Omeprazole sulfone (90% CI)” value ([7]; AUCt 0 to 8 h) was 1.00 (0.88–1.15).

With CC(=O)C[C@H](c1ccccc1)c1c(O)c2ccccc2oc1=O [R-Warfarin] the “Cmax, mean (CV%)” value ([8]; OSP (+)) was 538 (15.4) ng/mL, the “tmax, median (range)” value ([8]; OSP (+)) was 4 (2–8) h and the “AUC∞, mean (CV%)” value ([8]; OSP (+) 60 mg once daily) was 32.8 (23.1) μg h/mL. For the same compound, the “Cmax, mean (CV%)” value ([8]; OSP (−)) was 518 (15.2) ng/mL, the “tmax, median (range)” value ([8]; OSP (−)) was 4 (2–6) h and the “AUC∞, mean (CV%)” value ([8]; OSP (−)) was 31.3 (21.7) μg h/mL.

For O=C(c1ccc(OCCN2CCCCC2)cc1)c1c(-c2ccc(O)cc2)sc2cc(O)ccc12 [Raloxifene], the “Decrease of the prothrombin time of patients on warfarin” value [9] is listed as 10%.

With CC(=O)C[C@@H](c1ccccc1)c1c(O)c2ccccc2oc1=O [S-Warfarin, S-warfarin] the “Cmax, mean (CV%)” value ([8]; OSP (+)) was 513 (13.3) ng/mL, the “tmax, median (range)” value ([8]; OSP (+)) was 4 (2–8) h and the “AUC∞, mean (CV%)” value ([8]; OSP (+) 60 mg once daily) was 19.2 (30.2) μg h/mL. For the same compound, the “Cmax, mean (CV%)” value ([8]; OSP (−)) was 497 (14.5) ng/mL, the “tmax, median (range)” value ([8]; OSP (−)) was 4 (2–6) h and the “AUC∞, mean (CV%)” value ([8]; OSP (−)) was 18.5 (29.9) μg h/mL.

With CC(=O)CC(c1ccccc1)c1c(O)c2ccccc2oc1=O (centres unmarked) [warfarin] the Tolerability [4] was “well tolerated”.
